# Source: patent US20220152159A1, “PHARMACEUTICAL COMPOSITION, METHODS FOR TREATING AND USES THEREOF” (Boehringer Ingelheim International GmbH, priority 2010, published 2022)
# Experiments:
# [1] = tested on: streptozotocin-pretreated male Sprague-Dawley rats (experimental diabetes, type 1 diabetic condition); assay: Example 1a: blood glucose over 4 h after SGLT2 inhibitor, insulin glargine or combination; type: in vivo, rat; details: four hours after administration, Cpd. A 10 mg/kg oral, insulin glargine 1.5 IU/animal s.c.; for reduction of blood glucose versus control: combination at the same doses, 3-h fasted STZ rats; for statistical difference of blood glucose versus control: combination same doses
# Protocol: All experimental protocols concerning the use of laboratory animals were reviewed by a federal Ethics Committee and approved by governmental authorities. Two weeks before the study starts, the rats were pretreated with a single dose of 60 mg/kg i.p. of streptozotocin to induced experimental diabetes, resembling a type 1 diabetic condition. During the study blood glucose was followed over 4 h in male, 3-h fasted Sprague-Dawley rats (Crl:CD) with an age of 8-9 weeks at the start of the study. A pre-dose blood sample was obtained by tail bleed for randomization and blood glucose was measured with a glucometer 30, 60, 90 min and 2, 3, 4 hours after administration of the insulin and/or the SGLT2 inhibitor. At time point 0 min, the animals (n=4-6 per group) were injected either with insulin glargine or isotonic NaCl subcutaneously. Simultaneously all animals received oral administrations of either vehicle alone (0.5% aqueous hydroxyethylcellulose) or this vehicle containing the SGLT2 inhibitor. The data are presented as mean±S.E.M. Statistical comparison was conducted by repeated measures two-way ANOVA (analysis of variance) followed by Bonferroni post tests for group-wise comparisons. A p value <0.05 was considered to show a statistically significant difference. The term “Cpd. A” denotes the SGLT2 inhibitor compound (1.9) at a dose of 10 mg/kg. Insulin glargine was administered at a dose of 1.5 IU/animal. The term “Cpd. A+Insulin glargine” denotes the combination of the SGLT2 inhibitor compound (1.9) and insulin glargine at the same doses. P values versus control are indicated by asterisks and p values of the monotherapies versus the combination are indicated by crosses (one symbol, p<0.05; two symbols, p<0.01; three symbols, p<0.001). Four hours after administration, the SGLT2 inhibitor had reduced blood glucose by 19% versus control, and insulin glargine by 27%.
# [2] = tested on: streptozotocin-pretreated male Sprague-Dawley rats (experimental diabetes, type 1 diabetic condition); assay: Example 1b: blood glucose over 6 h after SGLT2 inhibitor, insulin glargine or combination; type: in vivo, rat; details: six hours after administration, Cpd. A 10 mg/kg oral, insulin glargine 1.5 μl/animal s.c.; for reduction of blood glucose versus control: combination at the same doses, 3-h fasted STZ rats; for statistical difference of blood glucose versus control: combination same doses
# Protocol: All experimental protocols concerning the use of laboratory animals were reviewed by a federal Ethics Committee and approved by governmental authorities. Two weeks before the study starts, the rats were pretreated with a single dose of 60 mg/kg i.p. of streptozotocin to induced experimental diabetes, resembling a type 1 diabetic condition. During the study blood glucose was followed over 6 h in male, 3-h fasted Sprague-Dawley rats (Crl:CD) with an age of 8-9 weeks at the start of the study. A pre-dose blood sample was obtained by tail bleed for randomization and blood glucose was measured with a glucometer 30, 60, 90 min and 2, 3, 4, 5, 6 hours after administration of insulin and/or the SGLT2 inhibitor. At time point 0 min, the animals (n=4-6 per group) were injected either with insulin glargine or isotonic NaCl subcutaneously. Simultaneously all animals received oral administrations of either vehicle alone (0.5% aqueous hydroxyethylcellulose) or this vehicle containing the SGLT2 inhibitor. The data are presented as mean±S.E.M. Statistical comparison was conducted by repeated measures two-way ANOVA followed by Bonferroni post tests for group-wise comparisons. A p value <0.05 was considered to show a statistically significant difference. The term “Cpd. A” denotes the SGLT2 inhibitor compound (1.9) at a dose of 10 mg/kg. Insulin glargine was administered at a dose of 1.5 μl/animal. The term “Cpd. A+Insulin glargine” denotes the combination of the SGLT2 inhibitor compound (1.9) and insulin glargine at the same doses. P values versus control are indicated by asterisks and p values of the monotherapies versus the combination are indicated by crosses (one symbol, p<0.05; two symbols, p<0.01; three symbols, p<0.001). Six hours after administration, the SGLT2 inhibitor had reduced blood glucose by 13% versus control, and insulin glargine by 22%.
# [3] = tested on: the diabetic; details: metformin on its own; cited from earlier work
# [4] = tested on: streptozotocin-pretreated male Sprague-Dawley rats (experimental diabetes, type 1 diabetic condition); assay: Example 2a: blood glucose over 4 h, SGLT2 inhibitor plus low-dose insulin glargine versus high-dose insulin glargine; type: in vivo, rat; details: for reduction of blood glucose versus control: four hours after administration; for statistical difference of blood glucose versus control: four hours
# Protocol: All experimental protocols concerning the use of laboratory animals were reviewed by a federal Ethics Committee and approved by governmental authorities. Two weeks before the study starts, the rats were pretreated with a single dose of 60 mg/kg i.p. of streptozotocin to induced experimental diabetes, resembling a type 1 diabetic condition. During the study blood glucose was followed over 4 h in male, 3-h fasted Sprague-Dawley rats (Crl:CD) with an age of 8-9 weeks at the start of the study. A pre-dose blood sample was obtained by tail bleed for randomization and blood glucose was measured with a glucometer 30, 60, 90 min and 2, 3, 4 h after administration of the insulin alone or together with the SGLT2 inhibitor. At time point 0 min, the animals (n=4-6 per group) were injected either with insulin glargine or isotonic NaCl subcutaneously. Simultaneously all animals received oral administrations of either vehicle alone (0.5% aqueous hydroxyethylcellulose) or this vehicle containing the SGLT2 inhibitor. The data are presented as mean±S.E.M. Statistical comparison was conducted by repeated measures two-way ANOVA followed by Bonferroni post tests for group-wise comparisons. A p value <0.05 was considered to show a statistically significant difference. Insulin glargine was administered at a dose of 1.5 μl/animal (low-dose) or 6 μl/animal (high-dose). The term “Cpd. A+low-dose insulin glargine” denotes the combination of the SGLT2 inhibitor at a dose of 10 mg/kg and insulin glargine at a dose of 1.5 μl/animal. P values versus control are indicated by asterisks and p values of the low-dose insulin glargine versus the combination or the high-dose insulin glargine are indicated by crosses (one symbol, p<0.05; two symbols, p<0.01; three symbols, p<0.001). […] The combination had decreased blood glucose by 53%, which was in the range of the high-dose insulin glargine with a decrease of 47%.
# [5] = tested on: streptozotocin-pretreated male Sprague-Dawley rats (experimental diabetes, type 1 diabetic condition); assay: Example 2b: blood glucose over 6 h, SGLT2 inhibitor plus low-dose insulin glargine versus high-dose insulin glargine; type: in vivo, rat; details: for reduction of blood glucose versus control: six hours after administration; for statistical difference of blood glucose versus control: six hours
# Protocol: All experimental protocols concerning the use of laboratory animals were reviewed by a federal Ethics Committee and approved by governmental authorities. Two weeks before the study starts, the rats were pretreated with a single dose of 60 mg/kg i.p. of streptozotocin to induced experimental diabetes, resembling a type 1 diabetic condition. During the study blood glucose was followed over 6 h in male, 3-h fasted Sprague-Dawley rats (Crl:CD) with an age of 8-9 weeks at the start of the study. A pre-dose blood sample was obtained by tail bleed for randomization and blood glucose was measured with a glucometer 30, 60, 90 min and 2, 3, 4, 5, 6 h after administration of insulin alone or together with the SGLT2 inhibitor. At time point 0 min, the animals (n=4-6 per group) were injected either with insulin glargine or isotonic NaCl subcutaneously. Simultaneously all animals received oral administrations of either vehicle alone (0.5% aqueous hydroxyethylcellulose) or this vehicle containing the SGLT2 inhibitor. The data are presented as mean±S.E.M. Statistical comparison was conducted by repeated measures two-way ANOVA followed by Bonferroni post tests for group-wise comparisons. A p value <0.05 was considered to show a statistically significant difference. Insulin glargine was administered at a dose of 1.5 μl/animal (low-dose) or 6 IU/animal (high-dose). The term “Cpd. A+low-dose insulin glargine” denotes the combination of the SGLT2 inhibitor at a dose of 10 mg/kg and insulin glargine at a dose of 1.5 μl/animal. P values versus control are indicated by asterisks and p values of the low-dose insulin glargine versus the combination or the high-dose insulin glargine are indicated by crosses (one symbol, p<0.05; two symbols, p<0.01; three symbols, p<0.001). […] The combination had decreased blood glucose by 49%, which was in the range of the high-dose insulin glargine with a decrease of 44%.
# [6] = low-dose insulin glargine 1.5 μl/animal s.c., alone or with Cpd. A 10 mg/kg oral
# [7] = low-dose insulin glargine 1.5 μl/animal, alone or with Cpd. A 10 mg/kg
Molecule,reduction of blood glucose versus control [1] [%],statistical difference of blood glucose versus control [1],reduction of blood glucose versus control [2] [%],statistical difference of blood glucose versus control [2],average improvement in the HbA1c value [3],reduction of blood glucose versus control ([4]; high-dose insulin glargine 6 μl/animal s.c.) [%],"reduction of blood glucose versus control [4, 6] [%]",statistical difference of blood glucose versus control ([4]; high-dose insulin glargine 6 μl/animal),"statistical difference of blood glucose versus control [4, 7]",reduction of blood glucose versus control ([5]; high-dose insulin glargine 6 IU/animal s.c.) [%],"reduction of blood glucose versus control [5, 6] [%]",statistical difference of blood glucose versus control ([5]; high-dose insulin glargine 6 IU/animal),"statistical difference of blood glucose versus control [5, 7]"
"OC[C@H]1O[C@@H](c2ccc(Cl)c(Cc3ccc(O[C@H]4CCOC4)cc3)c2)[C@H](O)[C@@H](O)[C@@H]1O [compound (1.9), 1-chloro-4-(β-D-glucopyranos-1-yl)-2-[4-((S)-tetrahydrofuran-3-yloxy)-benzyl]-benzene]",19,did not show statistically significant differences versus control,13,did not show statistically significant differences versus control,–,–,–,–,–,–,–,–,–
CN(C)C(=N)N=C(N)N [metformin],–,–,–,–,1.0-1.5%,–,–,–,–,–,–,–,–
"Gly^A21, Arg^B31, Arg^B32 human insulin [insulin glargine]",27,did not show statistically significant differences versus control,22,did not show statistically significant differences versus control,–,47,27,significantly different from the control,without showing statistically significant difference,44,22,significantly different from the control,without showing statistically significant difference
